Experimental findings from patent publication US9724300B2, “Long-lasting, controlled-release local anesthetic liposome preparation” (Terumo Kabushiki Kaisha, priority 2012, dated 2017) are described below.

Molecules are shown by their SMILES. Counter-ions that a name gives are not always drawn.

This assay concerns postoperative pain model of rats. In words: Postoperative pain model of rats (foot sole pain model), von Frey filament test. Format: in vivo, male Wistar rats. The protocol: A pentobarbital sodium injection (Nembutal injection, made by Sumitomo Dainippon Pharma Co., Ltd.) (0.3 mL) was intraperitoneally administered to male Wistar rats for anesthesia. Thereafter, a skin incision was made with a No. 11 scalpel blade (made by FEATHER Safety Razor Co., Ltd.) longitudinally at a position of 5 mm from the heel of the left foot bottom. The plantaris muscle was taken out from the incision site, followed by longitudinal incision. Subsequently, the skin was subjected to a knotted suture with a 5-0 nylon thread by double stitches. Moreover, a […] was applied in a single layer thereonto so as not to permit the administered controlled-release preparation to leak. […] More particularly, using the von Frey hair set (commercial name: Touch-Test, made by North Coast Medical Inc.) requiring a given stress before bending, this was pressed against the operated site of rats vertically from beneath the mesh of a gauge wherein rats were accommodated, whereupon a stress (a withdrawal threshold against mechanical stimuli) was determined at the time when the rat raised paws in surprise. […] Using the postoperative pain model of rat set out above, the analgesic effect of the bupivacaine hydrochloride-containing, controlled-release preparation of Example 1 was evaluated according to the von Frey filament test. […]

On to `CCCCN1CCCCC1C(=O)Nc1c(C)cccc1C` (centres unmarked) [bupivacaine hydrochloride, Bupivacaine hydrochloride], for which, for the setting “bupivacaine hydrochloride itself (stock solution), similar postoperative pain model of rats”, the “analgesic effect (increase of threshold value)” value was “no analgesic effect was obtained even at the postoperative first day”.
Take `CCCN1CCCC[C@H]1C(=O)Nc1c(C)cccc1C` [ropivacaine hydrochloride, Ropivacaine hydrochloride]: the “analgesic effect (increase of threshold value)” value (ropivacaine hydrochloride itself (stock solution), similar postoperative pain model of rat) is reported as “no analgesic effect was obtained even at the postoperative first day”.
